One assay concerns H3122 cells. Nature of the assay: CTG. The following applies: Homo sapiens, NCI-H3122, read-out: CTG IC50. Type of assay: cell-based.
A further assay has as its target T1, EML4-ALK (Homo sapiens, UniProt Q9UM73).
T1 construct: endogenous in cells; host or cells: H3122 (NSCLC), single-cell clone after CRISPR knock-in of HiBit; the other entry of the earlier key: EML4 (Q9HC35, Echinoderm microtubule-associated protein-like 4)
The experiment in a line: EML4-ALK HiBit degradation assay in CRISPR-tagged H3122 cells (Nano-Glo HiBit Lytic Detection). The assay is classed as cell-based. On the procedure:
NSCLC cell line H3122 was subjected to CRISPR to express EML4-ALK with HiBit-tag on its c-terminal. Single-cell clone was selected and expanded for the following assays that monitor endogenous EML4-ALK level in high throughput manner. Cells were seeded in 384-well white Tissue-culture plates at 3000 cells/well for 8 hours. […] HiBit signal was assessed using Nano-Glo® HiBit Lytic Detection System (Promega™). Degrader-treated was normalized by DMSO-treated controls and DC50 and Dmax were generated by GraphPad Prism® 8.0.
NSCLC cell line H3122 was subjected to CRISPR to express EML4-ALK with HiBit-tag on its c-terminus. A single-cell clone was selected and expanded for the following assays that monitor endogenous EML4-ALK level in high throughput manner. Cells were seeded in 384-well white Tissue-culture plates at 3000 cells/well for 8 hours. […] HiBit signal was assessed using Nano-Glo® HiBit Lytic Detection System (Promega™). Degrader-treated cells were normalized by DMSO-treated controls and DC50 and Dmax were generated by GraphPad Prism® 8.0.
NSCLC cell line H3122 was subjected to CRISPR to express EML4-ALK with HiBit-tag on its C-terminus. A single-cell clone was selected and expanded for the following assays that monitor endogenous EML4-ALK level in high throughput manner. Cells were seeded in 384-well white Tissue-culture plates at 3000 cells/well for 8 hours. […] HiBit signal was assessed using Nano-Glo® HiBit Lytic Detection System (Promega™). Degrader-treated cells were normalized by DMSO-treated controls and DC50 and Dmax were generated by GraphPad Prism® 8.0.

Setting [1] is: NCI-H3122, Table 1, first Dmax column, H3122 EML4-ALK-HiBit, 16 hours, read-out: Degradation Dmax.
Setting [2] is: NCI-H3122, Table 1, second Dmax column, H3122 EML4-ALK-HiBit, 16 hours, read-out: Degradation Dmax.
The mark [3] stands for this setting: NCI-H3122, Table 1, average Dmax, read-out: Degradation Avg. Dmax.
Setting [4] is: Table 1, first DC50 column, H3122 EML4-ALK-HiBit, 16 hours, read-out: Degradation DC50.
The mark [5] stands for this setting: Table 1, second DC50 column, H3122 EML4-ALK-HiBit, 16 hours, read-out: Degradation DC50.
The mark [6] stands for this setting: Table 1, average DC50, read-out: Degradation Avg. DC50.
The mark [7] stands for this setting: NCI-H3122, Table 2, first Dmax column, H3122 EML4-ALK-HiBit, 16 hours, read-out: Degradation Dmax.
Setting [8] is: NCI-H3122, Table 2, average Dmax, read-out: Degradation Avg. Dmax.
Where [9] appears, read: Table 2, first DC50 column, H3122 EML4-ALK-HiBit, 16 hours, read-out: Degradation DC50.
Setting [10] is: Table 2, average DC50, read-out: Degradation Avg. DC50.
[11] abbreviates: NCI-H3122, Table 2, second Dmax column, H3122 EML4-ALK-HiBit, 16 hours, read-out: Degradation Dmax.
[12] abbreviates: Table 2, second DC50 column, H3122 EML4-ALK-HiBit, 16 hours, read-out: Degradation DC50.

Where two headings read alike, the source gives them in different places. A value given as a limit tells only on which side of the number the result lay.

T1 sequence (Q9UM73 with tags, fused parts or gaps): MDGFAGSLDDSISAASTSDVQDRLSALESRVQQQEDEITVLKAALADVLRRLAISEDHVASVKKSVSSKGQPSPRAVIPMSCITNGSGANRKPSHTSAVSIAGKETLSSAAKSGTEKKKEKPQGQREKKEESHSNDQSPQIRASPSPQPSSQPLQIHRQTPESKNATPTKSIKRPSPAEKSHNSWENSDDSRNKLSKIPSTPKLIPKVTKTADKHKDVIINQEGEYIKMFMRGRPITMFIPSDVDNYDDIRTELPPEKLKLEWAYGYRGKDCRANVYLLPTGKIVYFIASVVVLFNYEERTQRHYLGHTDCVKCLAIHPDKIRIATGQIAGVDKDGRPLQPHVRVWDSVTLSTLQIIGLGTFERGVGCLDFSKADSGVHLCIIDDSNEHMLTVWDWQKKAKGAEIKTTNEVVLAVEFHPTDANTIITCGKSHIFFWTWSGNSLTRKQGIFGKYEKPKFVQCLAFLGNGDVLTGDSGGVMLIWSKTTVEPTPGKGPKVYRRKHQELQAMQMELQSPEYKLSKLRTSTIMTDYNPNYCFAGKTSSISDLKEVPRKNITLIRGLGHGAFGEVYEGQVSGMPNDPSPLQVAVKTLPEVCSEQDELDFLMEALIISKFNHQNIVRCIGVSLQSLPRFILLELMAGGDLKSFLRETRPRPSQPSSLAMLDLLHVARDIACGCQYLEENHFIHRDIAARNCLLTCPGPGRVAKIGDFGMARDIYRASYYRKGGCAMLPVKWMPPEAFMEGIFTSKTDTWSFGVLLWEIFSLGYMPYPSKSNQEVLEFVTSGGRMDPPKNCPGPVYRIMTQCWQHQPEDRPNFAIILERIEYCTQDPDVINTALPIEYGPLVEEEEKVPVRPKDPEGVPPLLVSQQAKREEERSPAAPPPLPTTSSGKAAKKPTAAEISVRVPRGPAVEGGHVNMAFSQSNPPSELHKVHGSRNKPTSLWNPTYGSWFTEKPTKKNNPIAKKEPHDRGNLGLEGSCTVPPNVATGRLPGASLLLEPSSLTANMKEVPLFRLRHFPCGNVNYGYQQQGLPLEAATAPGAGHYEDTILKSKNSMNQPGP

`COc1cc(CCN(C)C(=O)CCCCCCCCNC(=O)COc2cccc3c2C(=O)N(C2CCC(=O)NC2=O)C3=O)c(C)cc1Nc1ncc(Cl)c(Nc2ccccc2S(=O)(=O)C(C)C)n1` (stereo not shown) [compound 7, N-(4-((5-chloro-4-((2-(isopropylsulfonyl)phenyl)amino)pyrimidin-2-yl)amino)-5-methoxy-2-methylphenethyl)-9-(2-((2-(2,6-dioxopiperidin-3-yl)-1,3-dioxoisoindolin-4-yl)oxy)acetamido)-N-methylnonanamide]: the half-maximal inhibitory concentration (IC50) (as a rule, the midpoint of a concentration-inhibition curve) in the assay on H3122 cells (Table 1) stood at 15.7 nM. The Dmax (commonly the greatest extent of degradation seen) amounted to 50.8% at EML4-ALK (setting [1]), 44.8% on EML4-ALK (setting [2]) and 47.8% on EML4-ALK (setting [3]). Also, the DC50 (in general, the concentration giving 50% degradation) is 91 nM on EML4-ALK (setting [4]), 36 nM on EML4-ALK (setting [5]) and 63 nM at EML4-ALK (setting [6]).

Turning to `COc1cc(CCN(C)C(=O)CCOCCOCCOCC#Cc2cccc3c2C(=O)N(C2CCC(=O)NC2=O)C3=O)c(C)cc1Nc1ncc(Cl)c(Nc2ccccc2P(C)(C)=O)n1` (stereo not shown) [Compound 63], in the assay on H3122 cells (Table 2), the IC50 is > 10000 nM. Also, the Dmax on EML4-ALK (setting [7]) and at EML4-ALK (setting [8]) was 27.3% in each case. Also, the DC50 at EML4-ALK (setting [9]) and at EML4-ALK (setting [10]) was 3910 nM throughout.

In the case of `COc1cc(CCN(C)C(=O)CCCC#Cc2cccc3c2C(=O)N(C2CCC(=O)NC2=O)C3=O)c(C)cc1Nc1ncc(Cl)c(Nc2ccccc2P(C)(C)=O)n1` (stereo not shown) [Compound 61], the IC50 in the assay with H3122 cells (Table 2) was > 10000 nM. Besides, the greatest degradation seen (Dmax) at EML4-ALK (setting [7]) is 29.5%; at EML4-ALK (setting [11]), 39.6%; at EML4-ALK (setting [8]), 34.5%. The 50% degradation concentration (DC50) on EML4-ALK (setting [9]) worked out at 9040 nM; at EML4-ALK (setting [12]), 8370 nM; at EML4-ALK (setting [10]) it was 8700 nM.

In the case of `COc1cc(CCNCCCCCSC(C)(C)C(NC(C)=O)C(=O)N2C[C@H](O)C[C@H]2C(=O)N[C@@H](C)c2ccc(-c3scnc3C)cc2)c(C)cc1Nc1ncc(Cl)c(Nc2ccccc2P(C)(C)=O)n1` (stereo partly shown) [Compound 73], in the assay with H3122 cells (Table 2), the IC50 turned out to be 788 nM. For the same compound, the Dmax stood at 59.6% at EML4-ALK (setting [7]), 62% at EML4-ALK (setting [11]) and 60.8% on EML4-ALK (setting [8]). The DC50 at EML4-ALK (setting [9]) stood at 3270 nM; at EML4-ALK (setting [12]), 1180 nM; at EML4-ALK (setting [10]), 2230 nM.

Regarding `COc1cc(CCN(C)C(=O)CCCCCC#Cc2cccc3c2C(=O)N(C2CCC(=O)NC2=O)C3=O)c(C)cc1Nc1ncc(Cl)c(Nc2ccccc2P(C)(C)=O)n1` (stereo not shown) [Compound 62], in the assay with H3122 cells (Table 2), the IC50 was > 10000 nM. Moreover, the Dmax on EML4-ALK (setting [7]) and on EML4-ALK (setting [8]) was 27.8% each time. The 50% degradation concentration (DC50) on EML4-ALK (setting [9]) and at EML4-ALK (setting [10]) was 4380 nM each time.

For `COc1cc(CCNCCCC(=O)N[C@H](C(=O)N2C[C@H](O)C[C@H]2C(=O)N[C@@H](C)c2ccc(-c3scnc3C)cc2)C(C)(C)C)c(C)cc1Nc1ncc(Cl)c(Nc2ccccc2S(=O)(=O)C(C)C)n1` [Compound 43], the concentration for half-maximal inhibition (IC50) in the assay on H3122 cells (Table 1) is 289 nM. The greatest degradation seen (Dmax) on EML4-ALK (setting [1]) and at EML4-ALK (setting [3]) was 38.1% each time. Moreover, the DC50 on EML4-ALK (setting [4]) and on EML4-ALK (setting [6]) was 1230 nM throughout.

Regarding `CN[C@@H](C)C(=O)N[C@H](C(=O)N1Cc2cc(OCCCCCNCCc3cc(OC)c(Nc4ncc(Cl)c(Nc5ccccc5S(=O)(=O)C(C)C)n4)cc3C)ccc2C[C@H]1C(=O)N[C@H]1CCCc2ccccc21)C(C)(C)C` [Compound 39], the IC50 worked out at 414 nM in the assay with H3122 cells (Table 1, unheaded column beside IC50 (nM)) and 1480 nM in the assay with H3122 cells (Table 1). Besides, the maximal degradation (Dmax) stood at 79.1% on EML4-ALK (setting [1]), 99.3% on EML4-ALK (setting [2]) and 89.2% at EML4-ALK (setting [3]). Moreover, the DC50 on EML4-ALK (setting [4]) came to 402 nM; at EML4-ALK (setting [5]) it was 184 nM; at EML4-ALK (setting [6]) it was 293 nM.

With `COc1cc(CCNCCCCCOc2cc(-c3scnc3C)ccc2[C@H](C)NC(=O)[C@@H]2C[C@@H](O)CN2C(=O)[C@@H](NC(C)=O)C(C)(C)C)c(C)cc1Nc1ncc(Cl)c(Nc2ccccc2S(=O)(=O)C(C)C)n1` [Compound 53], the IC50 with H3122 cells (Table 1) worked out at 121 nM. The Dmax was 64.9% on EML4-ALK (setting [1]), 68.2% on EML4-ALK (setting [2]) and 66.5% at EML4-ALK (setting [3]). Besides, the values for the DC50 on EML4-ALK (setting [4]), at EML4-ALK (setting [5]) and on EML4-ALK (setting [6]) were 113 nM, 72 nM and 93 nM, respectively.

Consider `COc1cc(CCNCCOCCOCCOCCC(=O)N[C@H](C(=O)N2C[C@H](O)C[C@H]2C(=O)N[C@@H](C)c2ccc(-c3scnc3C)cc2)C(C)(C)C)c(C)cc1Nc1ncc(Cl)c(Nc2ccccc2S(=O)(=O)C(C)C)n1` [Compound 47], for which, in the assay on H3122 cells (Table 1), the half-inhibitory concentration (IC50) was 285 nM. Moreover, the greatest degradation seen (Dmax) on EML4-ALK (setting [1]) was 81.9%; at EML4-ALK (setting [2]), 95.6%; at EML4-ALK (setting [3]), 88.7%. Besides, the DC50 on EML4-ALK (setting [4]) is 1100 nM; on EML4-ALK (setting [5]), 347 nM; on EML4-ALK (setting [6]), 723 nM.

`COc1cc(CCN(C)C(=O)CCCCCNC(=O)COc2cccc3c2C(=O)N(C2CCC(=O)NC2=O)C3=O)c(C)cc1Nc1ncc(Cl)c(Nc2ccccc2S(=O)(=O)C(C)C)n1` (stereo not shown) [compound 6, N-(4-((5-chloro-4-((2-(isopropylsulfonyl)phenyl)amino)pyrimidin-2-yl)amino)-5-methoxy-2-methylphenethyl)-6-(2-((2-(2,6-dioxopiperidin-3-yl)-1,3-dioxoisoindolin-4-yl)oxy)acetamido)-N-methylhexanamide]: in the assay with H3122 cells (Table 1), the IC50 came out at 11.6 nM. Also, the results for the Dmax on EML4-ALK (setting [1]), on EML4-ALK (setting [2]) and at EML4-ALK (setting [3]) were 34%, 30.4% and 32.2%, respectively. For the same compound, the DC50 came out at 124 nM on EML4-ALK (setting [4]), 266 nM on EML4-ALK (setting [5]) and 195 nM at EML4-ALK (setting [6]).

In the case of `COc1cc(CCN(C)C(=O)CCCCCCCC(=O)N[C@H](C(=O)N2C[C@H](O)C[C@H]2C(=O)N[C@@H](C)c2ccc(-c3scnc3C)cc2)C(C)(C)C)c(C)cc1Nc1ncc(Cl)c(Nc2ccccc2S(=O)(=O)C(C)C)n1` [compound 41, N^1-(4-((5-chloro-4-((2-(isopropylsulfonyl)phenyl)amino)pyrimidin-2-yl)amino)-5-methoxy-2-methylphenethyl)-N^9-((S)-1-((2S,4R)-4-hydroxy-2-(((S)-1-(4-(4-methylthiazol-5-yl)phenyl)ethyl)carbamoyl)pyrrolidin-1-yl)-3,3-dimethyl-1-oxobutan-2-yl)-N^1-methylnonanediamide], the IC50 in the assay with H3122 cells (Table 1) was found to be 176 nM. In addition, the Dmax on EML4-ALK (setting [1]) and at EML4-ALK (setting [3]) was 56.2% throughout. Also, the half-maximal degradation concentration (DC50) on EML4-ALK (setting [4]) and at EML4-ALK (setting [6]) was 626 nM throughout.

Consider `COc1cc(CCN(C)C(=O)CCOCCC(=O)N[C@H](C(=O)N2C[C@H](O)C[C@H]2C(=O)N[C@@H](C)c2ccc(-c3scnc3C)cc2)C(C)(C)C)c(C)cc1Nc1ncc(Cl)c(Nc2ccccc2P(C)(C)=O)n1` [compound 71, (2S,4R)-1-((S)-2-(3-(3-((4-((5-chloro-4-((2-(dimethylphosphoryl)phenyl)amino)pyrimidin-2-yl)amino)-5-methoxy-2-methylphenethyl)(methyl)amino)-3-oxopropoxy)propanamido)-3,3-dimethylbutanoyl)-4-hydroxy-N-((S)-1-(4-(4-methylthiazol-5-yl)phenyl)ethyl)pyrrolidine-2-carboxamide], for which the half-inhibitory concentration (IC50) in the assay with H3122 cells (Table 2) was 222 nM. The Dmax at EML4-ALK (setting [7]) was 50.9%; at EML4-ALK (setting [11]), 43.7%; on EML4-ALK (setting [8]), 47.3%. The figures for the 50% degradation concentration (DC50) on EML4-ALK (setting [9]), on EML4-ALK (setting [12]) and on EML4-ALK (setting [10]) were 543 nM, 150 nM and 350 nM, respectively.

Consider `COc1cc(CCN(C)C(=O)CCCCCCCCC(=O)N[C@H](C(=O)N2C[C@H](O)C[C@H]2C(=O)N[C@@H](C)c2ccc(-c3scnc3C)cc2)C(C)(C)C)c(C)cc1Nc1ncc(Cl)c(Nc2ccccc2S(=O)(=O)C(C)C)n1` [compound 42, N^1-(4-((5-chloro-4-((2-(isopropylsulfonyl)phenyl)amino)pyrimidin-2-yl)amino)-5-methoxy-2-methylphenethyl)-N^10-((S)-1-((2S,4R)-4-hydroxy-2-(((S)-1-(4-(4-methylthiazol-5-yl)phenyl)ethyl)carbamoyl)pyrrolidin-1-yl)-3,3-dimethyl-1-oxobutan-2-yl)-N^1-methyldecanediamide], for which the IC50 in the assay with H3122 cells (Table 1) amounted to 1310 nM. For the same compound, the Dmax on EML4-ALK (setting [1]) and at EML4-ALK (setting [3]) was 47.3% in each case. In addition, the DC50 on EML4-ALK (setting [4]) and at EML4-ALK (setting [6]) was 777 nM each time.
